The test system of series [1] is SOCE. Also noted: method as in PMID 29038464. The following applies: HEK cells; cited from earlier work.
Series [2] concerns SOCE. Kind of series: SOCE inhibition in HEK cells by fluorescence microscopy (calcium imaging). It is filed as cell-based, human. The procedure: With these two compounds in hand, two click reactions were performed and compounds 9 and 18 (Table 1), displaying the same substructures as the reference compound Synta66, were obtained with a yield of 31 and 60%, respectively. 9 and 18 were tested for activity on SOCE in HEK cells, a human embryonic kidney (HEK) cell line, by fluorescence microscopy, as described elsewhere.[16] After 600 s, Ca^2+ was added and intracellular levels were measured.
Screening, dose–response experiments, and calcium imaging experiments were performed in HEK cells (ATCC, Rock, ville, MD, USA), as already reported elsewhere.[16]

Series [3] is described as follows: Thermodynamic aqueous solubility and solubility in in vivo vehicles. It is filed as physicochemical. Here is the method:
Thermodynamic aqueous solubility was determined as follows: about 3 mg of the tested compound was weighed and dissolved in 3 mL of deionized water. After vigorous mixing by vortex followed by sonication for 5 min, the resulting supersaturated solution was shaken horizontally overnight at 25 °C. After filtration over a syringe filter (pore 0.22 μm, regenerate cellulose membrane), 100 μL of DMSO was added to 1 mL of the filtered solution. The resulting solution was further diluted in water (typically 1:10) before LC–UV analysis. Aqueous solubility was calculated comparing the filtrate peak area to those of the tested compound DMSO solutions. Solubility in aqueous media was also checked in the following vehicles at the target concentration of 6 mg/mL: saline + 10% DMSO, saline + 10% DMSO + 20% PEG400, saline + 5% ethanol.

The nature of series [4]: In vitro metabolic stability in mouse liver microsomes. Format: in vitro ADME. The following applies: MLMs, 50 μM substrate, 3 mM GSH trapping agent, HRMS. The procedure: Next, the in vitro metabolic stability of the five candidates (31, 34, 36, 38, and 40) was evaluated in mouse liver microsomes (MLMs) activated by NADPH by measuring the substrate residual after 1 h. For comparative purposes, Synta66 was incubated in the same conditions.
Phase I and II (glucuronidation) incubations were performed in MLMs (pooled male mouse CD-1, protein concentration: 20 mg/mL, purchased from Corning B.V. Life Sciences—Amsterdam, The Netherlands) using the procedure previously described[16] with the following modifications: 5 μM substrate concentration for the determination of the residual percentage and 50 μM for 34 metabolite characterization by HRMS; when metabolic activation was studied, 3 mM GSH trapping agent was added in the incubation mixture.
In general terms: Liver microsomes are a subcellular fraction often used to study metabolism.

The next series in a line: PK analysis in mice. The following applies: C57BL/6, mouse, plasma, 7 mg/kg. It is filed as in vivo. The procedure:
To further characterize the compound, a PK analysis was performed in mice. Briefly, mice were injected with 34 (i.v., 7 mg/kg, once) and serial blood sampling was performed.
(§1) All animal experiments observe the regulations in Italy (D.M. 116192) as well as the EU regulations (O.J. of E.C. L 358/1 12/18/1986). Compound 34 was injected i.v. at a dose of 7 mg/kg in C57BL/6 mice. Blood was collected after 5, 15, 30, 60, 120, 240, 360 min and 24 h. Aliquots of plasma samples were analyzed as previously reported.[16] AP was induced in mice by i.p. injections of cerulein, as already reported elsewhere.[16]
In vivo PK evaluation of compound 34.
Table S6. PK parameters of single administration of compound 34 (e.v., 7 mg/kg, n=5)
Parameter Unit Value S.D.

Series [5] concerns cerulein-induced murine model of AP. The series can be described thus: Cerulein-induced murine model of AP. Format: in vivo, mouse. The following applies: 10 mg/kg i.p. 30 and 150 min after first cerulein injection; tissue collected at 5 h. The procedure:
The PK profile of our candidate prompted us to investigate its efficacy in a cerulein-induced murine model of AP.[29]
as §1

The test system of the next series is HEK cells. The series can be described thus: HEK cell viability after 72 h at 50 μM with or without uridine (involvement of DHODH).
For another series, the system named is ICRAC. On the set-up: method as in PMID 19648266. The following applies: cited from earlier work.
Series [6] concerns SOCE. Also noted: method as in PMID 30347159. The following applies: cited from earlier work.
The next series deals with cerulein-induced AP. Also noted: method as in PMID 30347159. The following applies: rodents; cited from earlier work.
[7] abbreviates: intravenous, Table S6, single administration, e.v., n=5.
Setting [8] is: iv, mice, i.v., once, read-out: half-life (t1/2) (converted).

Entries after “also recorded” stand apart in the source; their conditions may differ. Like-named read-outs stand apart in the source and are kept apart here.

One may read the IC50 as the midpoint of a concentration-inhibition curve. Broadly, the solubility is the dissolved amount per volume that the medium holds. The Cmax is the peak of the concentration-time curve. In general, Tmax refers to the time at which the peak concentration occurs. By clearance is commonly meant the rate of elimination divided by the concentration. Broadly, the inhibition is the percentage by which the read-out fell short of the control.

`C/C(O)=C(\C#N)C(=O)Nc1ccc(C(F)(F)F)cc1` [teriflunomide]: the IC50 in the series on SOCE [1] is 4.3 ± 1 µM.
With `COc1cccc(-c2ccc(-n3cc(-c4cccc(C(=O)O)c4)nn3)cc2)c1OC` [Compound 34, 3-(1-(2′,3′-Dimethoxy-[1,1′-biphenyl]-4-yl)-1H-1,2,3-triazol-4-yl)benzoic Acid], the “AUC compared to the reference compound Synta66” value in the series with SOCE [2] (HEK cells, Figure S1) was “significantly reducing the AUC”. Moreover, the “AUC, peak amplitude, and slope of the Ca2+-rise” value with SOCE [2] (HEK cells, selected compounds, Figure S1) was “induced a drop in the three parameters”. Further, the “solubilization at 6 mg/mL in saline containing 10% DMSO + 20% PEG400” value in series [3] (nominal concentration 6 mg/mL, vehicle for in vivo administration) is “limpid solution”. For the same molecule, the “increase in aqueous solubility of 34 compared to 36” value in [3] (sodium salts) came out at 80 fold. Besides, the solubility in series [3] (thermodynamic, deionized water, 25 °C overnight, biphenyl triazoles as sodium salts, read-out: H2O solubility) was 1530 µg/mL. In addition, the “formation of glutathione (GSH) adducts” value in [4] is given as “did not highlight the formation of glutathione (GSH) adducts”. Moreover, in the series “PK analysis in mice” (setting [7]), the Cmax was determined as 16800 ng/mL and the time to peak (Tmax) stood at 12 min. This molecule registered a Cmax in the series “PK analysis in mice” (iv, mice, once) of 16800 ng/mL. In addition, the clearance at 24 h in “PK analysis in mice” (iv, mice, i.v., once, read-out: clearance (Cl) (converted)) is 8.33 mL/min/kg. Further, in “PK analysis in mice” (setting [8]), the half-life was 193 min and the half-life at 24 h is 192 min. Further, the “histological scores of pancreatic tissue (H&E), inflammation and edema” value in series [5] is listed as “significantly ameliorate the histological scores; also recorded: efficacy in a mouse model of cerulein-induced AP”. Also, the “cytotoxicity in HEK cells up to 60 μM” value with HEK cells (up to 60 μM) is recorded as “no detectable cytotoxicity”.
Turning to `COc1ccc(OC)c(-c2ccc(NC(=O)c3ccncc3F)cc2)c1` [Synta66, reference compound], in the series with SOCE [2] (HEK cells, 10 μM), the “AUC and peak amplitude of the Ca2+-rise vs control” value was “significantly reduced AUC and peak amplitude”; the “slope of the Ca2+-rise vs control” value is “significant effect on the slope”. Further, the inhibition at 10 µM in the series on SOCE [2] (Homo sapiens, HEK293, HEK cells, 10 μM, negative value = increased Ca2+ entry vs control) turned out to be 90.8 ± 1.7%. Also, the inhibition at 3 µM in the series on SOCE [2] (Homo sapiens, HEK293, supplementary CSV, HEK cells, read-out: % SOCE Inhibition (3 µM)) amounted to 90.8 ± 1.7%. The IC50 in the series with ICRAC was 1400 to 3000 nM. Also, in the series on HEK cells (50 μM, 72 h), the “cell viability / cytotoxicity at 50 μM, 72 h” value is reported as “significant cytotoxicity”.
As for `CCCC(C)OC(=O)c1cnn(-c2ccc(-n3cc(-c4cccc(C(=O)O)c4)nn3)cc2)c1C(F)(F)F` (centres unmarked) [Compound 3], in the series with SOCE [6], the IC50 is 4.4 µM. The “efficacy in cerulein-induced AP” value in the series with cerulein-induced AP is “demonstrated efficacy; also recorded: significantly ameliorate cerulein-induced AP in rodents without signs of toxicity”.

Source of the values: article PMC7735735, “Store-Operated Calcium Entry as a Therapeutic Target in Acute Pancreatitis: Discovery and Development of Drug-Like SOCE Inhibitors” (Journal of Medicinal Chemistry, 2020).
